In series [1] the test system is HCV replicon RNA (GenBank Accession No. AJ242654). Nature of the series: HCV Replicon Assay (replicon RNA reduction and/or Fluc reporter signal). It is filed as cell-based, Hepatitis C virus. Particulars: Hepatitis C virus, 72 h, replicon-containing cells cultured with test compound for up to 3 days. The method in brief: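 IC50 values mostly reflect the drop in replicon RNA, though Fluc reporter signal may also be used. Compound incubated with cells carrying the bicistronic replicon for as long as 3 days; interferon served as positive control.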
(In general: A replicon is a self-replicating genome or part of one, used to study replication in cells.)

In patent US9593108B2, “Compounds and methods for antiviral treatment” (PTC Therapeutics, Inc., priority 2009, dated 2017) one finds IC50 and melting point data, which are given here for 10 compounds.

For orientation: IC50 means the concentration that inhibits the measured activity by half. The low end stands for higher potency, the high end for lower potency. As usually defined, the melting point is the temperature, or range, at which the solid turns liquid. Regarding `CCc1cnc2c(c1)c(C#N)c(-c1ccc(S(=O)(=O)NC(C)C)nc1)n2C1CCC1` [Cpd 195, 5-(3-cyano-1-cyclobutyl-5-ethyl-1H-pyrrolo[2,3-b]pyridin-2-yl)-N-(propan-2-yl)pyridine-2-sulfonamide], the melting point was 195 to 202 °C. Further, in series [1], the IC50 is below 500 nM.

With `CCc1cnc2c(c1)c(C#N)c(-c1ccc(S(=O)(=O)N[C@@H](C)C(F)(F)F)cn1)n2-c1cccc(F)c1` [Cpd 511, 6-[3-cyano-5-ethyl-1-(3-fluorophenyl)-1H-pyrrolo[2,3-b]pyridin-2-yl]-N-[(2S)-1,1,1-trifluoropropan-2-yl]pyridine-3-sulfonamide], the melting point lay in the range of 195 to 197 °C. In addition, the IC50 in series [1] is below 500 nM.

`Cc1cnc2c(c1)c(C#N)c(-c1ncc(S(=O)(=O)N[C@H](C)C(F)(F)F)cn1)n2C1CCC1` [Cpd 70, 2-(3-cyano-1-cyclobutyl-5-methyl-1H-pyrrolo[2,3-b]pyridin-2-yl)-N-[(2R)-1,1,1-trifluoropropan-2-yl]pyrimidine-5-sulfonamide] had a melting point of 186 to 188 °C. In series [1], the IC50 is below 500 nM.

`COc1cnc2c(c1)c(C#N)c(-c1ccc(S(=O)(=O)NC3CCC3)cn1)n2C1CCC1` [Cpd 309, 6-(3-cyano-1-cyclobutyl-5-methoxy-1H-pyrrolo[2,3-b]pyridin-2-yl)-N-cyclobutylpyridine-3-sulfonamide] showed a melting point of 203 to 207 °C. In addition, in series [1], the IC50 is below 500 nM.

Regarding `C[C@H](NS(=O)(=O)c1ccc(-c2c(C#N)c3cc(N4CCCC4)cnc3n2C2CCC2)nc1)C(F)(F)F` [Cpd 239, 6-[3-cyano-1-cyclobutyl-5-(pyrrolidin-1-yl)-1H-pyrrolo[2,3-b]pyridin-2-yl]-N-[(2S)-1,1,1-trifluoropropan-2-yl]pyridine-3-sulfonamide], the melting point lay within 207 to 209 °C. The same compound gave an IC50 in series [1] of 500 to 2000 nM.

On to `C[C@@H](NS(=O)(=O)c1ccc(-c2c(C#N)c3cnc(Cl)cc3n2C2CCCC2)cc1)C(F)(F)F` [Cpd 88, 4-(6-chloro-3-cyano-1-cyclopentyl-1H-pyrrolo[3,2-c]pyridin-2-yl)-N-[(2R)-1,1,1-trifluoropropan-2-yl]benzenesulfonamide], for which the melting point lay in the range of 239 to 241 °C. In series [1], this compound registered an IC50 below 500 nM.

`N#Cc1c(-c2ccc(S(=O)(=O)NC3(C(F)(F)F)CC3)cn2)n(C2CCC2)c2ncc(C3CC3)cc12` [Cpd 124, 6-(3-cyano-1-cyclobutyl-5-cyclopropyl-1H-pyrrolo[2,3-b]pyridin-2-yl)-N-[1-(trifluoromethyl)cyclopropyl]pyridine-3-sulfonamide] showed a melting point of 163 to 171 °C. This compound also had an IC50 in series [1] below 500 nM.

`N#Cc1c(-c2ccc(S(=O)(=O)NC3CCC3)cn2)n(C2CCC2)c2ncc(C3CC3)cc12` [Cpd 134, 6-(3-cyano-1-cyclobutyl-5-cyclopropyl-1H-pyrrolo[2,3-b]pyridin-2-yl)-N-cyclobutylpyridine-3-sulfonamide]: the melting point was in the range of 189 to 197 °C. The compound also had an IC50 in series [1] below 500 nM.

`COc1ccc2c(n1)c(C#N)c(-c1ccc(S(=O)(=O)NC(CF)CF)cn1)n2C1CCC1` [Cpd 15, 6-(3-cyano-1-cyclobutyl-5-methoxy-1H-pyrrolo[3,2-b]pyridin-2-yl)-N-(1,3-difluoropropan-2-yl)pyridine-3-sulfonamide]: the melting point was 199 to 201 °C. Besides, the IC50 in series [1] was in the range of 500 to 2000 nM.

`Cc1cnc2c(C#N)c(-c3ccc(S(=O)(=O)N[C@@H](C)C(F)(F)F)cn3)n(-c3ncccn3)c2c1` [Cpd 475, 6-[3-cyano-6-methyl-1-(pyrimidin-2-yl)-1H-pyrrolo[3,2-b]pyridin-2-yl]-N-[(2S)-1,1,1-trifluoropropan-2-yl]pyridine-3-sulfonamide] yielded a melting point of 226 to 228 °C. Also, the IC50 in series [1] was below 500 nM.
